Columns and labels:
[1] = molecular target: T1, Vitamin D-binding protein (Homo sapiens) (UniProt P02774); assay: Relative competitive index for binding to vitamin D binding protein
T1 sequence (whole entry): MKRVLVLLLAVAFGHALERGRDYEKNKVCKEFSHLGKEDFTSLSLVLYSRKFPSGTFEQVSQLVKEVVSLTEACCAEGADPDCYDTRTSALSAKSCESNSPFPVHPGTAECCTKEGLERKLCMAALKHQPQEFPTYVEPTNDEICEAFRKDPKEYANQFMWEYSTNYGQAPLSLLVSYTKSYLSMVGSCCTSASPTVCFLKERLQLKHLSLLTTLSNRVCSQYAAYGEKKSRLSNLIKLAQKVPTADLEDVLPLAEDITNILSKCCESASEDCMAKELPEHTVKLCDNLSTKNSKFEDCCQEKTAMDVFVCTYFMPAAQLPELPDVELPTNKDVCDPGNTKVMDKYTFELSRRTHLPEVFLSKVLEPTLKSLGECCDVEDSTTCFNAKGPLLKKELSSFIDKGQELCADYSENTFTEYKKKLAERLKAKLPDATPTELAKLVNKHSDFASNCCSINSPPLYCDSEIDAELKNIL

[2] = system: Vitamin D3 receptor (Gallus gallus); assay: Relative competitive index values for binding to 1,25(OH)2D3 receptor of chick intestine
Gallus gallus [3] = assay: Effect on bone calcium mobilization was measured in vivo, in the vitamin D deficient chick; type: functional, Bone element; parameters: reference not given here
Homo sapiens [4] = species: Homo sapiens; assay: Inhibitory effect (10e-6 M) on the 25-hydroxyvitamin D3-1-hydroxylase activity
[5] = molecular target: Vitamin D3 receptor (Homo sapiens) (UniProt P11473); assay: Relative competitive index values for binding to 1,25(OH)2D3 receptor of human HL-60 cells
Homo sapiens [6] = species: Homo sapiens; assay: 25-hydroxyvitamin D3-1-hydroxylase activity (10e-6 M) was measured as %control
Gallus gallus [7] = assay: Effect on intestinal calcium absorption was measured in vivo, in the vitamin D deficient chick; type: functional; parameters: reference not given here
Homo sapiens [8] = species: Homo sapiens; assay: 25-OH-D3-1-hydroxylase activity (10e-6 M) was measured as %control; type: functional
Homo sapiens [9] = species: Homo sapiens; assay: Inhibitory effect (10e-6 M) on the 25-OH-D3-1-hydroxylase activity; type: functional
[10] = molecular target: Vitamin D3 receptor (Homo sapiens) (UniProt P11473); assay: Relative competitive index values for binding to 1,25(OH)2D3 receptor of human HL-60 cells; remark: listed apart in the source

RCI [1] | RCI [2] | Activity (Homo sapiens [4]) | Control (Homo sapiens [6]) | Control (Homo sapiens [8]) | Activity (Homo sapiens [9]) | SMILES | Ratio (Gallus gallus [3]) | RCI [5] | Ratio (Gallus gallus [7]) | RCI [10]
980 | 28 | 16.9 pmol/10 min | 97% | – | – | C=C1/C(=C\C=C2/CCC[C@]3(C)[C@@H]([C@H](C)Cc4cccc(O)c4)CC[C@@H]23)C[C@@H](O)C[C@@H]1O | 1 | 27 | 0.28 | –
– | 1.4 | 16.7 pmol/10 min | 96% | – | – | C=C1/C(=C\C=C2/CCC[C@]3(C)[C@@H]([C@H](C)Cc4cccc(C)c4)CC[C@@H]23)C[C@@H](O)C[C@@H]1O | 0.06 | 3.5 | 0.31 | –
1980 | 5 | – | – | 104% | 18.1 pmol/10 min | C=C1/C(=C\C=C2/CCC[C@]3(C)[C@@H]([C@H](C)Cc4ccc(O)cc4)CC[C@@H]23)C[C@@H](O)C[C@@H]1O | 0.08 | – | 0.04 | 12
2 | 62 | 17.2 pmol/10 min | 99% | – | – | C=C1/C(=C\C=C2/CCC[C@]3(C)[C@@H]([C@H](C)Cc4cccc(C(C)(C)O)c4)CC[C@@H]23)C[C@@H](O)C[C@@H]1O | 7.7 | 32 | 30.7 | –
– | – | 2.1 pmol/10 min | 12% | – | – | C=C1/C(=C\C=C2/CCC[C@]3(C)[C@@H]([C@H](C)CCCC(C)(C)O)CC[C@@H]23)C[C@@H](O)C[C@@H]1O | – | – | – | –
